Results from patent US20240366612A1, “COMPOUNDS AND METHODS FOR MODULATING NUCLEIC ACID SPLICING” (REMIX THERAPEUTICS INC., priority 2021, published 2024).
Structures can show the parent of a compound that is named as a salt.

How the values were obtained:
[1] = test system: HTT mRNA; experiment: Splicing RT-qPCR assay, HTT canonical (CJ) and alternative (AJ) junction mRNA; assay type: cell-based; details: Homo sapiens, A673 or K562 cells, 24 hours treatment; for IC50: decrease in CJ mRNA; for AC50: increase in AJ mRNA
Summary of the method: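 Compound-treated A673 or K562 cells (11-point 3-fold dilution, top dose 10 uM final, DMSO ≤0.25%) were incubated for 24 h at 37° C. Lysates underwent one-step RT-qPCR for canonical and alternative-exon junction isoforms. Normalization used PPIA for A673 and GAPDH or GUSB for K562.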

[2] = test system: MYB CJ mRNA; experiment: Gene panel canonical junction qPCR assay, MYB; assay type: cell-based; details: Homo sapiens, larger gene panel, read-out: MYB IC50 (decrease in CJ mRNA levels)
Summary of the method: (§1)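 A673 or K562 cells treated 24 h with 11-point 3-fold dilutions (top 10 µM, ≤0.25% DMSO) at 37 °C. Canonical exon-junction mRNA measured by probe-based RT-qPCR, normalized to GAPDH, GUSB or PPIA and DMSO (2^−ΔΔCt), converted to percent response over a fixed ΔCt window; IC50 from 4-parameter fit.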

[3] = test system: SMN2 CJ mRNA; experiment: Gene panel canonical junction qPCR assay, SMN2; assay type: cell-based; details: Homo sapiens, larger gene panel, read-out: SMN2 IC50 (decrease in CJ mRNA levels)
Summary of the method: as §1

[4] = test system: Target C CJ mRNA; experiment: Gene panel canonical junction qPCR assay, Target C; assay type: cell-based; details: Homo sapiens, larger gene panel, read-out: Target C IC50 (decrease in CJ mRNA levels)
Summary of the method: as §1

[5] = Cell Titer Glo 2.0 cell viability assay; details: human, K562 cells

Row | IC50 [1] | IC50 [2] | IC50 [3] | IC50 [4] | Structure (SMILES) | AC50 [1] | GI50 at 72 h [5]
1 | 1000 to 10000 nM | 1000 to 10000 nM | < 100 nM | > 10000 nM | Cc1cn2cc(-c3cc4ncn([C@H]5CCNC[C@@H]5F)c(=O)c4s3)cc(F)c2n1 (relative stereo) [Compound 272, trans-6-{8-fluoro-2-methylimidazo[1,2-a]pyridin-6-yl}-3-[3-fluoropiperidin-4-yl]thieno[3,2-d]pyrimidin-4-one] | > 10000 nM | > 10000 nM
2 | > 10000 nM | 1000 to 10000 nM | 100 to 1000 nM | > 10000 nM | Cc1cn2cc(-c3cc(=O)n4cc(N5CCNC6(CC6)C5)sc4n3)cc(F)c2n1 [Compound 207, 7-(8-fluoro-2-methylimidazo[1,2-a]pyridin-6-yl)-2-(4,7-diazaspiro[2.5]octan-7-yl)-5H-thiazolo[3,2-a]pyrimidin-5-one] | > 10000 nM | > 10000 nM
3 | 100 to 1000 nM | 100 to 1000 nM | < 100 nM | 100 to 1000 nM | Cc1cn2cc(-c3cc4ncn([C@H]5CCN[C@@H](C)C5)c(=O)c4s3)cc(F)c2n1 (relative stereo) [Compound 278, 6-{8-fluoro-2-methylimidazo[1,2-a]pyridin-6-yl}-3-[(cis)-2-methylpiperidin-4-yl]thieno[3,2-d]pyrimidin-4-one hydrochloride] | 100 to 1000 nM | 100 to 1000 nM
4 | 100 to 1000 nM | 100 to 1000 nM | 100 to 1000 nM | 1000 to 10000 nM | Cc1cn2cc(-c3cc4ncn([C@H]5CCNC[C@H]5F)c(=O)c4s3)cc(F)c2n1 (relative stereo) [Compound 273, cis-6-{8-fluoro-2-methylimidazo[1,2-a]pyridin-6-yl}-3-[3-fluoropiperidin-4-yl]thieno[3,2-d]pyrimidin-4-one] | 1000 to 10000 nM | 1000 to 10000 nM
5 | 1000 to 10000 nM | 1000 to 10000 nM | 1000 to 10000 nM | 1000 to 10000 nM | COc1cc(-c2cc3ncn(C4CCNCC4)c(=O)c3s2)ccn1 [Compound 263] | 1000 to 10000 nM | 1000 to 10000 nM
6 | 100 to 1000 nM | 100 to 1000 nM | 100 to 1000 nM | 100 to 1000 nM | Cc1cn2cc(-c3nc4sc(C5CCNCC5)cc4c(=O)[nH]3)cc(F)c2n1 [Compound 250, 2-(8-fluoro-2-methylimidazo[1,2-a]pyridin-6-yl)-6-(piperidin-4-yl)thieno[2,3-d]pyrimidin-4(3H)-one] | 100 to 1000 nM | 100 to 1000 nM
7 | < 100 nM | 100 to 1000 nM | < 100 nM | 100 to 1000 nM | Cc1cn2cc(-c3nc4ncn(C5CCNCC5)c(=O)c4s3)cc(F)c2n1 [Compound 232, 2-(8-fluoro-2-methylimidazo[1,2-a]pyridin-6-yl)-6-(piperidin-4-yl)thiazolo[4,5-d]pyrimidin-7(6H)-one] | < 100 nM | 100 to 1000 nM
8 | 100 to 1000 nM | 100 to 1000 nM | < 100 nM | 1000 to 10000 nM | Cc1cn2cc(-c3cc4ncn(N5CCNCC5)c(=O)c4s3)cc(F)c2n1 [Compound 269, 6-{8-fluoro-2-methylimidazo[1,2-a]pyridin-6-yl}-3-(piperazin-1-yl)thieno[3,2-d]pyrimidin-4-one] | 100 to 1000 nM | 100 to 1000 nM
9 | > 10000 nM | > 10000 nM | 1000 to 10000 nM | > 10000 nM | Cc1cn2cc(-c3nc4sc(C5CCN(C)CC5)cc4c(=O)[nH]3)cc(F)c2n1 [Compound 256, 2-(8-fluoro-2-methylimidazo[1,2-a]pyridin-6-yl)-6-(1-methylpiperidin-4-yl)thieno[2,3-d]pyrimidin-4(3H)-one] | > 10000 nM | > 10000 nM
10 | 1000 to 10000 nM | 100 to 1000 nM | < 100 nM | 1000 to 10000 nM | Cn1cc2cc(-c3cc4ncn(C5CCNCC5)c(=O)c4s3)cc(C#N)c2n1 [Compound 259] | 1000 to 10000 nM | 1000 to 10000 nM
